Measurements reported in ChEMBL document CHEMBL5365420, “Kinetics, Thermodynamics, and Structural Effects of Quinoline-2-Carboxylates, Zinc-Binding Inhibitors of New Delhi Metallo-β-lactamase-1 Re-sensitizing Multidrug-Resistant Bacteria for Carbapenems” (J Med Chem, 2023).
In brackets after ≈: the same amount, converted by molar mass.

How the values were obtained:
Escherichia coli [1] = experiment: Antibacterial activity against clinical isolate Escherichia coli K12 J53-ST10 618/15 expressing blaNDM-1 assessed as inhibition of bacterial growth measured after 20 hrs by broth microdilution assay; assay type: functional
Escherichia coli [2] = experiment: Antibacterial activity against clinical isolate Escherichia coli K12 J53-ST10 696/17 expressing blaNDM-1 co-expressing blaCMY-4 assessed as inhibition of bacterial growth measured after 20 hrs by broth microdilution assay; assay type: functional
Escherichia coli [3] = experiment: Antibacterial activity against clinical isolate Escherichia coli K12 J53-ST10 684/18 expressing bla-NDM-1 co-expressing bla-CMY-2 and bla-OXA-10 assessed as inhibition of bacterial growth measured after 20 hrs by broth microdilution assay; assay type: functional
Acinetobacter baumannii = experiment: Antibacterial activity against clinical isolate Acinetobacter baumannii IC 19/09 expressing blaNDM-1 co-expressing blaOXA-64 assessed as inhibition of bacterial growth measured after 20 hrs by broth microdilution assay; assay type: functional
Klebsiella pneumoniae [4] = experiment: Antibacterial activity against clinical isolate Klebsiella pneumoniae ST1493/10 expressing blaNDM-1 co-expressing blaCMY-2like/blaTEM-1/blaCTX-M-15/blaSHV-28/blaOXA-1 and blaOXA-9 assessed as inhibition of bacterial growth measured after 20 hrs by broth microdilution assay; assay type: functional
Escherichia coli [5] = experiment: Antibacterial activity against clinical isolate Escherichia coli K12 J53-ST10 699/15 expressing blaNDM-1 assessed as inhibition of bacterial growth measured after 20 hrs by broth microdilution assay; assay type: functional
Escherichia coli [6] = experiment: Antibacterial activity against clinical isolate Escherichia coli ST1012/10 expressing blaNDM-1 co-expressing blaTEM-1/blaCTX-M-15/blaOXA-1 and blaOXA-2 assessed as inhibition of bacterial growth measured after 20 hrs by broth microdilution assay; assay type: functional
Klebsiella pneumoniae [7] = experiment: Antibacterial activity against clinical isolate Klebsiella pneumoniae 50/20 expressing blaNDM-5 co-expressing blaTEM-1 and blaSHV-1 assessed as inhibition of bacterial growth measured after 20 hrs by broth microdilution assay; assay type: functional
Klebsiella pneumoniae [8] = experiment: Antibacterial activity against clinical isolate Klebsiella pneumoniae ST23213/19 expressing blaNDM-1 co-expressing blaOXA-48/blaSHV-11/blaCTX-M-15 and blaOXA-1 assessed as inhibition of bacterial growth measured after 20 hrs by broth microdilution assay; assay type: functional
Klebsiella pneumoniae [9] = experiment: Antibacterial activity against clinical isolate Klebsiella pneumoniae 62/07 expressing blaVIM-19 co-expressing blaSHV-1/blaCTX-M-14 and blaCMY-4 assessed as inhibition of bacterial growth measured after 20 hrs by broth microdilution assay; assay type: functional
Escherichia coli [10] = experiment: Antibacterial activity against clinical isolate Escherichia coli 371/12 expressing blaNDM-7 co-expressing blaCTX-M-15 and blaOXA-1 assessed as inhibition of bacterial growth measured after 20 hrs by broth microdilution assay; assay type: functional
Klebsiella pneumoniae [11] = experiment: Antibacterial activity against clinical isolate Klebsiella pneumoniae 50/11 expressing blaNDM-1 co-expressing blaTEM-1/blaSHV-28/blaTEM-1/blaCTX-M-15 and blaOXA-1 assessed as inhibition of bacterial growth measured after 20 hrs by broth microdilution assay; assay type: functional
[12] = target: 72 kDa type IV collagenase (Homo sapiens, UniProt P08253); experiment: Inhibition of human recombinant MMP-2 CD using OMNIMMP as substrate incubated for 30 mins by fluorescence based analysis
Chain of 72 kDa type IV collagenase (P08253 whole entry): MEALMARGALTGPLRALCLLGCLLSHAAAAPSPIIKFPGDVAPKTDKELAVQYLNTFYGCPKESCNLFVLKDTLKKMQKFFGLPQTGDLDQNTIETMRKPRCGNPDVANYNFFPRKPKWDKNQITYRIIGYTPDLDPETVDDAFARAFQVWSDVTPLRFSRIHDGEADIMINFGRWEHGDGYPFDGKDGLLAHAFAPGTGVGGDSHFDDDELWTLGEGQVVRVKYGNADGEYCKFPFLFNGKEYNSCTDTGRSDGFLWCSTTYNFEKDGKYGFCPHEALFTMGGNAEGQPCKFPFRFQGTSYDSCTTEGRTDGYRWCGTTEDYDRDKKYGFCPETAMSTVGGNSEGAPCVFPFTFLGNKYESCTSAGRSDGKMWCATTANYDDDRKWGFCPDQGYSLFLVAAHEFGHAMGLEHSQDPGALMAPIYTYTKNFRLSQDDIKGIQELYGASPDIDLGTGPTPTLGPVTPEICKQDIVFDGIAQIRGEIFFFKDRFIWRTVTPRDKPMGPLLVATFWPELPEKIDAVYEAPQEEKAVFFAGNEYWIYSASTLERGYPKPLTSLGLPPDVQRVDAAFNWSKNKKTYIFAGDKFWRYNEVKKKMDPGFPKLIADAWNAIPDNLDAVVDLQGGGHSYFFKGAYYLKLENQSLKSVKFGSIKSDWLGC

| SMILES | MIC (Escherichia coli [1]) | MIC (Escherichia coli [2]) | MIC (Escherichia coli [3]) | MIC (Acinetobacter baumannii) | MIC (Klebsiella pneumoniae [4]) | MIC (Escherichia coli [5]) | MIC (Escherichia coli [6]) | MIC (Klebsiella pneumoniae [7]) | MIC (Klebsiella pneumoniae [8]) | MIC (Klebsiella pneumoniae [9]) | MIC (Escherichia coli [10]) | MIC (Klebsiella pneumoniae [11]) | IC50 [12] |
| --- | --- | --- | --- | --- | --- | --- | --- | --- | --- | --- | --- | --- | --- |
| C[C@@H](O)[C@H]1C(=O)N2C(C(=O)O)=C(S[C@@H]3CN[C@H](C(=O)N(C)C)C3)[C@H](C)[C@H]12 [MEROPENEM] | 32 µg/mL (≈ 83.4 µM) | 16 µg/mL (≈ 41.7 µM) | 64 µg/mL (≈ 167 µM) | > 128 µg/mL | 128 µg/mL (≈ 334 µM) | 32 µg/mL (≈ 83.4 µM) | 128 µg/mL (≈ 334 µM) | 64 µg/mL (≈ 167 µM) | > 128 µg/mL | 128 µg/mL (≈ 334 µM) | 64 µg/mL (≈ 167 µM) | 64 µg/mL (≈ 167 µM) | – |
| O=C(O)[C@H](Cc1ccccc1)NS(=O)(=O)c1ccc(-c2ccccc2)cc1 | – | – | – | – | – | – | – | – | – | – | – | – | 266 nM |
